System: M. tuberculosis moxifloxacin resistant mutants (G88C, A90V, D94G in gyrase A) and H37Rv
Format: cell-based, Mycobacterium tuberculosis

## Cc1c(C#N)c(=O)oc2cc(OCCN3CCN(Cc4ccc(Br)cc4)CC3)ccc12 [CM14]
  activity in fluoroquinolone resistant strains: maintained potency in all evaluated strains
  growth inhibition compared with moxifloxacin: growth inhibition in similar ranges to moxifloxacin

## Cc1cc(=O)oc2cc(OCCN3CCN(Cc4ccc(Br)cc4)CC3)ccc12 [CM12]
  activity in fluoroquinolone resistant strains: maintained potency in all evaluated strains
  growth inhibition compared with moxifloxacin: growth inhibition in similar ranges to moxifloxacin

Reference: publication PMC6151660 (Molecules : A Journal of Synthetic Chemistry and Natural …, 2017)
